Measured values: the supplement of paper PMC10627819

How the values were obtained:
S. aureus DSM 20231 = assay: Bliss interaction score (quartile over a dose matrix) (fitness difference); higher = more antagonism (negative = synergy)
Procedure, shortened: (§1)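 The Bliss score subtracts expected fitness, the product of the single-drug fitness values, from observed fitness. Fitness is plate-normalised OD595 at entry into stationary phase, relative to the robust no-drug mean and capped at 1, with single-drug fitness inferred from combinations. Summaries are quartiles over technical, biological and donor/recipient replicates.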

S. pneumoniae D39V [1] = assay: as above
Procedure, shortened: as §1

B. subtilis 168 = assay: as above
Procedure, shortened: as §1

S. aureus Newman = assay: as above
Procedure, shortened: as §1

S. pneumoniae D39V [2] = assay: fitness (endpoint OD595 vs no drug) (fraction); higher = more growth
Procedure, shortened: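 Bacterial growth was followed in 384-well plates seeded at OD595 0.01, with 30 µl per well, or 55 µl for S. pneumoniae, in TSB, LB Lennox or CY at 37 °C. OD595 was read every 30 min for 14 h, and each reading had the first reading subtracted as background. Fitness is the background-corrected optical density at entry into stationary phase divided by the robust mean of the no-drug control wells. This ratio is capped at 1.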
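Wherever Bliss interaction score (quartile over a dose matrix) is given: first quartile when negative (synergy) and third quartile when positive (antagonism).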

CC1(C)S[C@@H]2[C@H](NC(=O)[C@H](N)c3ccc(O)cc3)C(=O)N2[C@H]1C(=O)O [Amoxicillin] + CCC(C)C1C(=O)NC(=C)C(=O)NC(C(=O)NC(CSCC(C(=O)N1)NC(=O)/C(=C/C)/NC(=O)C(C(C)CC)N)C(=O)NC2C(SCC(NC(=O)CNC(=O)C3CCCN3C2=O)C(=O)NC(CCCCN)C(=O)NC4C(SCC(NC(=O)CNC(=O)C(NC(=O)C(NC(=O)C(NC(=O)CNC4=O)C)CC(C)C)CCSC)C(=O)NC(CC(=O)N)C(=O)NC(CCSC)C(=O)NC(CCCCN)C(=O)NC5C(SCC6C(=O)NC(C(=O)NC(CSC(C(C(=O)N6)NC(=O)C(NC5=O)C)C)C(=O)NC(CO)C(=O)NC(C(C)CC)C(=O)NC(CC7=CN=CN7)C(=O)NC(C(C)C)C(=O)NC(=C)C(=O)NC(CCCCN)C(=O)O)CC8=CN=CN8)C)C)C)CC(C)C [Nisin]
main component drawn
Conditions	Bliss interaction score
B. subtilis 168	-0.105
S. aureus DSM 20231	-0.111
S. aureus Newman	-0.0715
S. pneumoniae D39V [1]	0.09

fitness, S. pneumoniae D39V [2], main component drawn
Conditions	partner 0.4275 µg/mL	partner 0.855 µg/mL	partner 1.6 µg/mL	partner 1.71 µg/mL	partner 3.2 µg/mL	partner 6.4 µg/mL
first compound 0.0008 µg/mL	≥ 1	0.534	–	0.106	–	–
first compound 0.0015 µg/mL	0.981	–	0.135	0.119	0.0433	0.0441
first compound 0.003 µg/mL	0.953	0.705	0.38	0.13	0.0777	0.0249

fitness, S. pneumoniae D39V [2], one replicate, main component drawn
Conditions	partner 1.6 µg/mL	partner 3.2 µg/mL	partner 6.4 µg/mL
first compound 0.0008 µg/mL	0.0458	0.094	0.0228
first compound 0.006 µg/mL	0.289	0.0544	0.0443

CC1(C)S[C@@H]2[C@H](NC(=O)[C@H](N)c3ccc(O)cc3)C(=O)N2[C@H]1C(=O)O [Amoxicillin] + CC[C@H]1OC(=O)[C@H](C)[C@@H](O[C@H]2C[C@@](C)(OC)[C@@H](O)[C@H](C)O2)[C@H](C)[C@@H](O[C@@H]2O[C@H](C)C[C@H](N(C)C)[C@H]2O)[C@](C)(OC)C[C@@H](C)C(=O)[C@H](C)[C@@H](O)[C@]1(C)O [Clarithromycin]
Conditions	Bliss interaction score
B. subtilis 168	0.0461
S. aureus DSM 20231	-0.0818
S. aureus Newman	-0.0752
S. pneumoniae D39V [1]	0.177

fitness, S. pneumoniae D39V [2], one replicate
Conditions	partner 0.007812 µg/mL	partner 0.01562 µg/mL	partner 0.03125 µg/mL	partner 0.0625 µg/mL	partner 0.125 µg/mL	partner 0.25 µg/mL
first compound 0.0008 µg/mL	0.921	0.834	0.67	0.748	0.666	0.364
first compound 0.0015 µg/mL	0.844	0.836	0.633	–	–	–
first compound 0.003 µg/mL	0.789	0.772	0.546	–	–	–
first compound 0.006 µg/mL	–	–	–	0.436	0.303	0.149

fitness, S. pneumoniae D39V [2]
Conditions	partner 0.0625 µg/mL	partner 0.07 µg/mL	partner 0.125 µg/mL	partner 0.14 µg/mL	partner 0.25 µg/mL	partner 0.28 µg/mL
first compound 0.0008 µg/mL	–	0.212	–	0.157	–	0.0725
first compound 0.0015 µg/mL	0.681	0.24	0.567	0.133	0.366	0.0875
first compound 0.003 µg/mL	0.684	0.126	0.551	0.104	0.357	0.0502

CC1(C)S[C@@H]2[C@H](NC(=O)[C@H](N)c3ccc(O)cc3)C(=O)N2[C@H]1C(=O)O [Amoxicillin] + CN(C)C(=O)C(CCN1CCC(O)(c2ccc(Cl)cc2)CC1)(c1ccccc1)c1ccccc1 [Loperamide]
Conditions	Bliss interaction score
B. subtilis 168	0.0397
S. aureus DSM 20231	-0.117
S. aureus Newman	0.0589
S. pneumoniae D39V [1]	0.0558

fitness, S. pneumoniae D39V [2]
Conditions	partner 17.14 µg/mL	partner 20 µg/mL	partner 34.28 µg/mL	partner 40 µg/mL	partner 80 µg/mL
first compound 0.0008 µg/mL	0.993	–	0.945	–	–
first compound 0.0015 µg/mL	0.977	≥ 1	0.935	≥ 1	≥ 1
first compound 0.003 µg/mL	0.868	0.999	0.839	0.994	0.991

fitness, S. pneumoniae D39V [2], one replicate
Conditions	first compound 0.0008 µg/mL	first compound 0.0015 µg/mL	first compound 0.003 µg/mL	first compound 0.006 µg/mL
partner 20 µg/mL	≥ 1	–	–	0.442
partner 40 µg/mL	≥ 1	–	–	0.448
partner 68.57 µg/mL	≥ 1	0.934	0.894	–
partner 80 µg/mL	≥ 1	–	–	0.212

CC1(C)S[C@@H]2[C@H](NC(=O)[C@H](N)c3ccc(O)cc3)C(=O)N2[C@H]1C(=O)O [Amoxicillin] + CO[C@H]1/C=C/O[C@@]2(C)Oc3c(C)c(O)c4c(O)c(c(/C=N/N5CCN(C)CC5)c(O)c4c3C2=O)NC(=O)/C(C)=C\C=C\[C@H](C)[C@H](O)[C@@H](C)[C@@H](O)[C@@H](C)[C@H](OC(C)=O)[C@@H]1C [Rifampicin]
Conditions	Bliss interaction score
B. subtilis 168	0.0837
S. aureus DSM 20231	0.133
S. aureus Newman	0.073
S. pneumoniae D39V [1]	0.0783

S. pneumoniae D39V [2], partner 0.025 µg/mL
Conditions	fitness
first compound 0.0008 µg/mL	0.925
first compound 0.0015 µg/mL	0.917
first compound 0.003 µg/mL	0.905

S. pneumoniae D39V [2], one replicate
Conditions	fitness
first compound 0.0008 µg/mL, partner 0.2 µg/mL	0
first compound 0.0015 µg/mL, partner 0.2 µg/mL	0
first compound 0.003 µg/mL, partner 0.2 µg/mL	0
first compound 0.006 µg/mL, partner 0.025 µg/mL	0.468
first compound 0.006 µg/mL, partner 0.05 µg/mL	0.546
first compound 0.006 µg/mL, partner 0.1 µg/mL	0.261

CC1(C)S[C@@H]2[C@H](NC(=O)[C@H](N)c3ccc(O)cc3)C(=O)N2[C@H]1C(=O)O [Amoxicillin] + C[C@@H](O)[C@H]1C(=O)N2C(C(=O)O)=C(SCCNC=N)C[C@H]12 [Imipenem]
Conditions	Bliss interaction score
B. subtilis 168	0.189
S. aureus DSM 20231	-0.0413
S. aureus Newman	0.0343
S. pneumoniae D39V [1]	-0.058

fitness, S. pneumoniae D39V [2], one replicate
Conditions	partner 0.005 µg/mL	partner 0.01 µg/mL	partner 0.02 µg/mL
first compound 0.0008 µg/mL	0.971	0.931	0.907
first compound 0.006 µg/mL	0.431	0.412	0.373

fitness, S. pneumoniae D39V [2]
Conditions	partner 0.005 µg/mL	partner 0.0065 µg/mL	partner 0.01 µg/mL	partner 0.013 µg/mL	partner 0.02 µg/mL	partner 0.026 µg/mL
first compound 0.0008 µg/mL	–	0.934	–	0.908	–	0.875
first compound 0.0015 µg/mL	0.928	0.927	0.934	0.919	0.907	0.859
first compound 0.003 µg/mL	0.888	0.842	0.882	0.869	0.866	0.796

CC1(C)S[C@@H]2[C@H](NC(=O)[C@H](N)c3ccc(O)cc3)C(=O)N2[C@H]1C(=O)O [Amoxicillin] + C[C@H]1COc2c(N3CCN(C)CC3)c(F)cc3c(=O)c(C(=O)O)cn1c23 [Levofloxacin]
Conditions	Bliss interaction score
B. subtilis 168	0.0559
S. aureus DSM 20231	0.0396
S. aureus Newman	-0.0695
S. pneumoniae D39V [1]	0.142

fitness, S. pneumoniae D39V [2]
Conditions	partner 0.1725 µg/mL	partner 0.2 µg/mL	partner 0.345 µg/mL	partner 0.4 µg/mL	partner 0.69 µg/mL	partner 0.8 µg/mL
first compound 0.0008 µg/mL	0.955	–	0.911	–	0.591	–
first compound 0.0015 µg/mL	0.976	0.951	0.906	0.868	0.57	0.774
first compound 0.003 µg/mL	0.96	0.866	0.89	0.893	0.561	0.775

fitness, S. pneumoniae D39V [2], one replicate
Conditions	partner 0.2 µg/mL	partner 0.4 µg/mL	partner 0.8 µg/mL
first compound 0.0008 µg/mL	0.959	0.881	0.718
first compound 0.006 µg/mL	0.5	0.509	0.399

CC1(C)S[C@@H]2[C@H](NC(=O)[C@H](N)c3ccc(O)cc3)C(=O)N2[C@H]1C(=O)O [Amoxicillin] + C[C@H]1c2cccc(O)c2C(=O)C2=C(O)[C@]3(O)C(=O)C(C(N)=O)=C(O)[C@@H](N(C)C)[C@@H]3[C@@H](O)[C@@H]21 [Doxycycline]
Conditions	Bliss interaction score
B. subtilis 168	0.136
S. aureus DSM 20231	-0.0671
S. aureus Newman	-0.0414
S. pneumoniae D39V [1]	0.151

S. pneumoniae D39V [2], one replicate
Conditions	fitness
first compound 0.0008 µg/mL, partner 0.003875 µg/mL	0.967
first compound 0.0008 µg/mL, partner 0.00775 µg/mL	0.976
first compound 0.0015 µg/mL, partner 0.003875 µg/mL	0.961
first compound 0.0015 µg/mL, partner 0.00775 µg/mL	0.988
first compound 0.003 µg/mL, partner 0.003875 µg/mL	0.944
first compound 0.003 µg/mL, partner 0.00775 µg/mL	0.973
first compound 0.006 µg/mL, partner 0.0155 µg/mL	0.386
first compound 0.006 µg/mL, partner 0.031 µg/mL	0.421
first compound 0.006 µg/mL, partner 0.062 µg/mL	0.451

fitness, S. pneumoniae D39V [2]
Conditions	first compound 0.0008 µg/mL	first compound 0.0015 µg/mL	first compound 0.003 µg/mL
partner 0.0155 µg/mL	0.931	0.899	0.898
partner 0.031 µg/mL	0.853	0.86	0.903
partner 0.062 µg/mL	0.797	0.767	0.724
